Data set [1] addresses T1, recombinant Falcipain-2 (FP-2) (Plasmodium falciparum, UniProt Q8I6U4).
T1 construct: made in house
T1 sequence (Q8I6U4 244-484): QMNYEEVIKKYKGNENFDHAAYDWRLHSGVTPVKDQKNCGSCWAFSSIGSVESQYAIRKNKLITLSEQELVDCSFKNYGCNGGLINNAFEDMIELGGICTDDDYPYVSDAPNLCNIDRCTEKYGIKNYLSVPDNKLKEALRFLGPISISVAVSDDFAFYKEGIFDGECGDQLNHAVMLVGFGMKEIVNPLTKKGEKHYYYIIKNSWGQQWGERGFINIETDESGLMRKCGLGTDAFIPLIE
In words: Falcipain-2 enzyme inhibition assay (fluorogenic substrate Z-Leu-Arg-AMC). It is filed as biochemical. Particulars: for IC50 / inhibition at 10 µM: FP-2 30 nM, pH 5.5, 30 min preincubation; for IC50: substrate Z-Leu-Arg-AMC 25 μM; for inhibition at 10 µM: pH 5.5, compound at 10 μM, substrate 25 μM, read-out: Inhibition rate at 10 μM (%). As to the method: For the primary assay, the percent inhibitions of the compounds at 10 μM were measured. […] Therefore, we determined their IC50 values (Table 1).
The purification and refolding of recombinant protein Falcipain-2 was performed as described by Shenai et al. IC50 values against recombinant Falcipain-2 were determined as described previously. FP-2 (30 nM) was incubated for 30 min at room temperature in 100 mM sodium acetate, pH 5.5, 10 mM DTT, with different concentrations of tested inhibitors. Inhibitor solutions were prepared from stock in DMSO (maximum concentration of DMSO in the assay was 1%). After 30 min incubation, the substrate Z-Leu-Arg-AMC (benzoxycarbonyl-Leu-Arg-7-amino-4-methylcoumarin, Bachem AG) in the same buffer was added to a final concentration of 25 μM. The increase in fluorescence (excitation at 355 nm and emission at 460 nm) was monitored for 30 min at room temperature with an automated microtiter plate spectrofluorimeter (Molecular Devices, Flex station). Half-maximal inhibitory concentration (IC50) was determined from plots of percent activity over compound concentration using GraphPad Prism software.

As for `NC(=O)c1c(NC(=O)CSc2nc3scc(-c4ccccc4)c3c(=O)n2Cc2ccccc2)sc2c1CCC2` [Compound 2e], the melting point (commonly the temperature, or range, at which the solid turns liquid) fell in the range of 163 to 167 °C. In addition, in data set [1], the 50% inhibitory concentration (IC50) – broadly, the concentration that inhibits the measured activity by half – was found to be 5.74 µM and the inhibition (commonly the relative decrease from the control value, in per cent) at 10 µM was greater than 90%.
Take `NC(=O)c1c(NC(=O)CSc2nc3scc(-c4ccccc4)c3c(=O)n2C2CCCCC2)sc2c1CCC2` [Compound 2a, 2-(2-(3-Cyclohexyl-3,4-dihydro-4-oxo-5-phenylthieno[2,3-d]pyrimidin-2-ylthio)acetamido)-5,6-dihydro-4H-cyclopenta[b]thiophene-3-carboxamide]: in data set [1], the IC50 was found to be 1.46 µM and the inhibition at 10 µM is greater than 90%. The “inhibitory activity relative to prototype compound 1 (times greater)” value in data set [1] (ratio of IC50s against FP-2 versus compound 1) is recorded as ~ 2 times.
With `C=CCn1c(SCC(=O)Nc2ccc(F)c(Cl)c2)nc2scc(-c3ccccc3)c2c1=O` [Compound 4f, 2-(3-Allyl-3,4-dihydro-4-oxo-5-phenylthieno[2,3-d]pyrimidin-2-ylthio)-N-(3-chloro-4-fluorophenyl)-acetamide], in data set [1], the 50% inhibitory concentration (IC50) was 5.43 µM and the inhibition at 10 µM was greater than 90%.
`NC(=O)c1c(NC(=O)CSc2nc3scc(-c4ccccc4)c3c(=O)n2-c2cccc(F)c2)sc2c1CCC2` [Compound 2b] gave a melting point of 234 to 239 °C. Besides, in data set [1], the IC50 turned out to be 2.05 µM and the inhibition at 10 µM was 79%.
For `C=CCn1c(SCC(=O)Nc2sc3c(c2C(N)=O)CCC3)nc2scc(-c3ccc(Cl)cc3)c2c1=O` [Compound 3b, 2-(2-(3-Allyl-3,4-dihydro-4-oxo-5-(4-chlorophenyl)thieno[2,3-d]pyrimidin-2-ylthio)acetamido)-5,6-dihydro-4H-cyclopenta[b]thiophene-3-carboxamide], in data set [1], the half-maximal inhibitory concentration (IC50) is 2.95 µM and the inhibition at 10 µM turned out to be 85.7%.
For `NC(=O)c1c(NC(=O)CSc2nc3scc(-c4ccccc4)c3c(=O)n2-c2ccc([N+](=O)[O-])cc2)sc2c1CCC2` [Compound 2c], the melting point lay within 271 to 274 °C. Besides, in data set [1], the IC50 is 2.77 µM and the inhibition at 10 µM stood at 85.4%.
On to `C=CCn1c(SCC(=O)Nc2ccc(C(=O)OCC)cc2)nc2scc(-c3ccccc3)c2c1=O` [Compound 4b, Ethyl 4-(2-(3-allyl-3,4-dihydro-4-oxo-5-phenylthieno[2,3-d]pyrimidin-2-ylthio)acetamido) benzoate], for which, in data set [1], the IC50 amounted to 5.7 µM and the inhibition at 10 µM was 94.3%.
Regarding `C=CCn1c(SCC(=O)Nc2sc3c(c2C(N)=O)CCC3)nc2scc(-c3cccc([N+](=O)[O-])c3)c2c1=O` [Compound 3c, 2-(2-(3-Allyl-3,4-dihydro-4-oxo-5-(3-nitrophenyl)thieno[2,3-d]pyrimidin-2-ylthio)acetamido)-5,6-dihydro-4H-cyclopenta[b]thiophene-3-carboxamide], the inhibition at 10 µM in data set [1] was 53%.
For `C=CCn1c(SCC(=O)Nc2nc3ccccc3s2)nc2scc(-c3ccccc3)c2c1=O` [Compound 4c, 2-(3-Allyl-3,4-dihydro-4-oxo-5-phenylthieno[2,3-d]pyrimidin-2-ylthio)-N-(benzo[d]thiazol-2-yl)-acetamide], the melting point lay within 192 to 194 °C. Further, in data set [1], the IC50 was 3.31 µM and the inhibition at 10 µM was determined as 90.3%.
Molecule `C=CCn1c(SCC(=O)Nc2sc(C(=O)OCC)c(C)c2C(N)=O)nc2scc(-c3ccccc3)c2c1=O` [Compound 4e, Ethyl 5-(2-(3-allyl-3,4-dihydro-4-oxo-5-phenylthieno[2,3-d]pyrimidin-2-ylthio)acetamido)-4-carbamoyl-3-methylthiophene-2-carboxylate] yielded a melting point of 136 to 140 °C. Also, in data set [1], the IC50 is 5.58 µM and the inhibition at 10 µM is 72%.
For `NC(=O)c1c(NC(=O)CSc2nc3scc(-c4ccccc4)c3c(=O)n2-c2ccc(Cl)cc2)sc2c1CCC2` [Compound 2d], the melting point fell in the range of 247 to 249 °C. Moreover, in data set [1], the half-maximal inhibitory concentration (IC50) amounted to 4.3 µM and the inhibition at 10 µM was determined as 84.7%.
The molecule `C=CCn1c(SCC(=O)Nc2sc3c(c2C(N)=O)CCCC3)nc2scc(-c3ccccc3)c2c1=O` [Compound 4d, 2-(2-(3-Alyl-3,4-dihydro-4-oxo-5-phenylthieno[2,3-d]pyrimidin-2-ylthio)acetamido)-4,5,6,7-tetra-hydrobenzo[b]thiophene-3-carboxamide] gave a melting point of 212 to 214 °C.
Turning to `C=CCn1c(SCC(=O)Nc2sc3c(c2C(N)=O)CCC3)nc2sc3c(c2c1=O)CCCC3` [Compound 3a], in data set [1], the IC50 was 5.77 µM and the inhibition at 10 µM was found to be 82.2%.
The molecule `C=CCn1c(SCC(=O)Nc2sc3c(c2C(=O)OCC)CCC3)nc2scc(-c3ccccc3)c2c1=O` [Compound 4a, Ethyl 2-(2-(3-allyl-3,4-dihydro-4-oxo-5-phenylthieno[2,3-d]pyrimidin-2-ylthio)acetamido)-5,6-dihydro-4H-cyclopenta[b]thiophene-3-carboxylate] came in with a melting point of 166 to 170 °C. Moreover, in data set [1], the IC50 was 6.63 µM and the inhibition at 10 µM was 93.3%.
Regarding `C=CCn1c(SCC(=O)Nc2sc3c(c2C(N)=O)CCC3)nc2scc(-c3ccccc3)c2c1=O` [Compound 1, 2-(2-(3-Allyl-3,4-dihydro-4-oxo-5-phenylthieno[2,3-d]pyrimidin-2-ylthio)acetamido)-5,6-dihydro-4H-cyclopenta[b]thiophene-3-carboxamide], in data set [1], the IC50 came out at 2.81 µM and the inhibition at 10 µM is 88.7%.

Values taken from article PMC6253991, “2-(3,4-Dihydro-4-Oxothieno[2,3-d]pyrimidin-2-ylthio) Acetamides as a New Class of Falcipain-2 Inhibitors. 3. Design, Synthesis and Biological Evaluation” (Molecules, 2009).
